Experimental data reported in article PMC7968666, “The pharmacokinetics and drug-drug interactions of ivermectin in Aedes aegypti mosquitoes” (PLoS Pathogens, 2021).

Test system: Aedes aegypti mosquitoes
Experiment: Drug effect on mosquito fertility (percentage of eggs hatched)
Assay type: in vivo
Method: The mixtures were rotated at room temperature for 30 min to ensure a uniform drug distribution (Rotator Genie, Scientific Industries, Bohemia, USA). […] Twelve hours later, the tap water was also removed to starve the mosquitoes. […] The mosquitoes were then feeding from blood through the netting and the Parafilm membrane. […] The photoperiod of the climate chamber and the insectary were synchronised. […] The engorged mosquitoes were either directly frozen at -20°C or returned to the climate chamber for certain time periods to assess the PK. […] Blood feeding was done as described above. […] In contrast to the PK experiments, the mosquitoes had unlimited access to water because a moistened oviposition substrate was inserted into the paper cup. […] Any hatched larva was counted and transferred to a rearing tray with a plastic pipette. The fertility was calculated as the percentage of eggs hatched. […] R Foundation for Statistical Computing, http://www.R-project.org, Vienna, Austria). Normality was assessed using the Shapiro-Wilk test. For normally distributed data (mortality, fecundity), group differences were assessed with one-way ANOVA testing, and, where applicable, followed up with Tukey's test. Group differences in fertility (not normally distributed) were evaluated with Kruskal-Wallis one-way analysis of variance, and Wilcoxon rank sum testing as post-hoc.

[1] = 100 eggs laid 48-96 h post-treatment, IVM 0.1, KCZ 5, RIF 10, RTV 10, PBO 10 μg/ml in blood

## CCC(C)C1OC2(CCC1C)CC1CC(CC=C(C)C(OC3CC(OC)C(OC4CC(OC)C(O)C(C)O4)C(C)O3)C(C)C=CC=C3COC4C(O)C(C)=CC(C(=O)O1)C34O)O2 (stereo not shown) [ivermectin]
[1]
  Mosquito fertility, Batch 1, hatching rate: 1%
  Mosquito fertility, Batch 2, hatching rate: 0%
  Mosquito fertility, Batch 3, hatching rate: 1%
Ivermectin 0.1 μg/ml in blood
  Effect on fertility of mosquito eggs: sterilised almost all mosquito eggs
